Holding throughout (test): Free Choice Kinase Assay Projects, Flashplate
In one test the target is AKT1 (human) (UniProt P31749). Particulars: compound 10.0 µM; ATP 3 µM.
The next test deals with AURKA (human) (UniProt O14965). Particulars: compound 10.0 µM; ATP 10 µM.
In a further test the target is AURKB (human) (UniProt Q96GD4). Particulars: compound 10.0 µM; ATP 10 µM.
For another test, the target named is AXL (human) (UniProt P30530). Particulars: compound 10.0 µM; ATP 0.3 µM.
Another test has as its target CDK2 CCNA2 (human) (UniProt P24941+P20248). Particulars: compound 10.0 µM; ATP 0.3 µM.
The next test concerns the target CDK4 CCND1 (human) (UniProt P11802+P24385). Particulars: compound 10.0 µM; ATP 3 µM.
The target in a further test is CSNK2A1 (human) (UniProt P68400). Particulars: compound 10.0 µM; ATP 0.1 µM.
A further test deals with EGFR (human) (UniProt P00533). Particulars: compound 10.0 µM; ATP 0.3 µM.
Another test deals with EPHB4 (human) (UniProt P54760). Particulars: compound 10.0 µM; ATP 1 µM.
Sequence of EPHB4 (human) (P54760 whole entry, looked up): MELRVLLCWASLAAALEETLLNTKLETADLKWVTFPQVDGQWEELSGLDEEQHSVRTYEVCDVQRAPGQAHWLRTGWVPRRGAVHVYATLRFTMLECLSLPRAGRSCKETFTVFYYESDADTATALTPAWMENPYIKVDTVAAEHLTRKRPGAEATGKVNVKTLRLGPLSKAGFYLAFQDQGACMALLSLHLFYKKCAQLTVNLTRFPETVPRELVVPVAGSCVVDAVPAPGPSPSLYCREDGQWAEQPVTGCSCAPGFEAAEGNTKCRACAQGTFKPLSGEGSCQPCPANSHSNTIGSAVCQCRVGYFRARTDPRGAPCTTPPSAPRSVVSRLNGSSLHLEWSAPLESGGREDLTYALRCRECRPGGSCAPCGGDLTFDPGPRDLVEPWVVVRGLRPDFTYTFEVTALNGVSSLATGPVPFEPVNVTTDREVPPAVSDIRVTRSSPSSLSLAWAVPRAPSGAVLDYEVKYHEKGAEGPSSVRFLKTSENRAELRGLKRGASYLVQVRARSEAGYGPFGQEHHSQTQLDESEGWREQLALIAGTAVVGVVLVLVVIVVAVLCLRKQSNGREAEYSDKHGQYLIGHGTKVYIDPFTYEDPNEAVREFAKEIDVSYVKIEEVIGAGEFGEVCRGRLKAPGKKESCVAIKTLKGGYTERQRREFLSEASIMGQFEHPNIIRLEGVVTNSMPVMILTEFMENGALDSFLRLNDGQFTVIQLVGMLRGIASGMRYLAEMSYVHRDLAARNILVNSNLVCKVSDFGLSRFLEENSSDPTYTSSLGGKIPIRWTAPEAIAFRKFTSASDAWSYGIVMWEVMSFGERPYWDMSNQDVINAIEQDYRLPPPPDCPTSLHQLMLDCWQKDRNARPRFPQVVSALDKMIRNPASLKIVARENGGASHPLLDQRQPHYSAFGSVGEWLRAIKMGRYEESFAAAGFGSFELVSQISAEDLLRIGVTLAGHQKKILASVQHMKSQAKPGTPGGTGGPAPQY
A further test addresses ERBB2 (human) (UniProt P04626). Particulars: compound 10.0 µM; ATP 1 µM.
The target in the next test is IGF1R (human) (UniProt P08069). Particulars: compound 10.0 µM; ATP 1 µM.
For another test, the target named is KDR (human) (UniProt P35968). Particulars: compound 10.0 µM; ATP 1 µM.
The target of another test is MAP3K8 (human) (UniProt P41279). Particulars: compound 10.0 µM; ATP 3 µM.
A further test deals with MAPK10 (human) (UniProt P53779). Particulars: compound 10.0 µM; ATP 0.3 µM.
In a further test the target is MAPK14 (human) (UniProt Q16539). Particulars: compound 10.0 µM; ATP 1 µM.
Sequence of MAPK14 (human) (Q16539 whole entry, looked up): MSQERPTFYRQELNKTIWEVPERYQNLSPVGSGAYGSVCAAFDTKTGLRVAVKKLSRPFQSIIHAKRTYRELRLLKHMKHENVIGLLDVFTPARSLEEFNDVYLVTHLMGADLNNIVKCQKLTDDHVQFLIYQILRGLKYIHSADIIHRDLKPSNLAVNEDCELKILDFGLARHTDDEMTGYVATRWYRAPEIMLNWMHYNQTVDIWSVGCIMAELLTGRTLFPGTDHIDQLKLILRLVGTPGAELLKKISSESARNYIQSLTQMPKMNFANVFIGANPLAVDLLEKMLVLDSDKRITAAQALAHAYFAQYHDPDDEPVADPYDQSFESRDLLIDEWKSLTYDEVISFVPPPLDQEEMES
The target in the next test is MET (human) (UniProt P08581). Particulars: compound 10.0 µM; ATP 0.3 µM.
The target of the next test is NUAK1 (human) (UniProt O60285). Particulars: compound 10.0 µM; ATP 1 µM.
For another test, the target named is PDGFRB (human) (UniProt P09619). Particulars: compound 10.0 µM; ATP 0.3 µM.
Sequence of PDGFRB (human) (P09619 whole entry, looked up): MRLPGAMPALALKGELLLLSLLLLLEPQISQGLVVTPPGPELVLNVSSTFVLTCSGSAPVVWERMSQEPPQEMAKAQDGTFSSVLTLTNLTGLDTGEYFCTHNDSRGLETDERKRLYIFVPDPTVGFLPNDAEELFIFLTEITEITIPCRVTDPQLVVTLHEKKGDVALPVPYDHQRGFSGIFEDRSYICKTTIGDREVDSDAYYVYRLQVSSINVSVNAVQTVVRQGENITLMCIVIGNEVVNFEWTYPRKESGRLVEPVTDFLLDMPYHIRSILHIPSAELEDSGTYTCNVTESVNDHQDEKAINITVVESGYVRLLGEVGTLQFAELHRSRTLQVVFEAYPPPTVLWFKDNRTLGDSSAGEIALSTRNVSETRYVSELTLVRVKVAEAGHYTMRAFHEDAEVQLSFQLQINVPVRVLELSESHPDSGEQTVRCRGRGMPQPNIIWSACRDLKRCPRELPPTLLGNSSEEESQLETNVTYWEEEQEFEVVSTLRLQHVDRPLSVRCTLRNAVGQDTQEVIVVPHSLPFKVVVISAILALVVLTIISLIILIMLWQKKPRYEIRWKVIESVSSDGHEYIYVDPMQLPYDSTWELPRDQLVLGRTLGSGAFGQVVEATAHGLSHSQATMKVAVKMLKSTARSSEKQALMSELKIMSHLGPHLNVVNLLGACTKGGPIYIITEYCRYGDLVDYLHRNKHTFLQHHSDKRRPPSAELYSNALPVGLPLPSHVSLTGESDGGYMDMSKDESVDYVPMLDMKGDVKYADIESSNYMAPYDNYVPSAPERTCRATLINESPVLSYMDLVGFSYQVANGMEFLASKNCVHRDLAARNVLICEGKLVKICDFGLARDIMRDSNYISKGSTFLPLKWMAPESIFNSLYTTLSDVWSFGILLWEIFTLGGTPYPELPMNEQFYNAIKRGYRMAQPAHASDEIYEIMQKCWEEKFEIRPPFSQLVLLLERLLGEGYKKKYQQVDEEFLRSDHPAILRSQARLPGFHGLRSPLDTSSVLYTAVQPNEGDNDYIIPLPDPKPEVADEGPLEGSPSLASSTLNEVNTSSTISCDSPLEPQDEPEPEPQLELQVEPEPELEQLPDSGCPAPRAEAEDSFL
The target in a further test is PLK1 (human) (UniProt P53350). Particulars: compound 10.0 µM; ATP 1 µM.
Sequence of PLK1 (human) (P53350 whole entry, looked up): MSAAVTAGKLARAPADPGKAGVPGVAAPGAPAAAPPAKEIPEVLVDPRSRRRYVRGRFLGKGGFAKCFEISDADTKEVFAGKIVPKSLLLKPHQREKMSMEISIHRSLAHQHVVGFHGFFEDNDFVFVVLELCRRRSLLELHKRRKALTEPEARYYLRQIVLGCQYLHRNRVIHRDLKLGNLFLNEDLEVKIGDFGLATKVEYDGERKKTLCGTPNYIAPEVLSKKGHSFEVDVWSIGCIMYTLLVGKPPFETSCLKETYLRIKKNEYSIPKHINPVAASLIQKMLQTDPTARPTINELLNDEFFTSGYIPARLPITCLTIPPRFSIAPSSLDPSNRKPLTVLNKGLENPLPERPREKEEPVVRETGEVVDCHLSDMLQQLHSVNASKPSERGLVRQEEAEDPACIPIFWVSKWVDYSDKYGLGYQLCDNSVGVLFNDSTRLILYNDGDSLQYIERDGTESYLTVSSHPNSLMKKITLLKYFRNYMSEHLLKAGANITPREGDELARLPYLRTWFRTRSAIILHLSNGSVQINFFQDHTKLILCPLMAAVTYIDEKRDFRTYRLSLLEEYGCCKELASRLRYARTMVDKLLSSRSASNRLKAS
A further test addresses PLK4 (human) (UniProt O00444). Particulars: compound 10.0 µM; ATP 0.3 µM.
The next test concerns the target PTK2 (human) (UniProt Q05397). Particulars: compound 10.0 µM; ATP 1 µM.
The target of a further test is SRC (human) (UniProt P12931). Particulars: compound 10.0 µM; ATP 0.3 µM.
The next test deals with TEK (human) (UniProt Q02763). Particulars: compound 10.0 µM; ATP 1 µM.

Sequence of PLK4 (human) (O00444 whole entry, looked up): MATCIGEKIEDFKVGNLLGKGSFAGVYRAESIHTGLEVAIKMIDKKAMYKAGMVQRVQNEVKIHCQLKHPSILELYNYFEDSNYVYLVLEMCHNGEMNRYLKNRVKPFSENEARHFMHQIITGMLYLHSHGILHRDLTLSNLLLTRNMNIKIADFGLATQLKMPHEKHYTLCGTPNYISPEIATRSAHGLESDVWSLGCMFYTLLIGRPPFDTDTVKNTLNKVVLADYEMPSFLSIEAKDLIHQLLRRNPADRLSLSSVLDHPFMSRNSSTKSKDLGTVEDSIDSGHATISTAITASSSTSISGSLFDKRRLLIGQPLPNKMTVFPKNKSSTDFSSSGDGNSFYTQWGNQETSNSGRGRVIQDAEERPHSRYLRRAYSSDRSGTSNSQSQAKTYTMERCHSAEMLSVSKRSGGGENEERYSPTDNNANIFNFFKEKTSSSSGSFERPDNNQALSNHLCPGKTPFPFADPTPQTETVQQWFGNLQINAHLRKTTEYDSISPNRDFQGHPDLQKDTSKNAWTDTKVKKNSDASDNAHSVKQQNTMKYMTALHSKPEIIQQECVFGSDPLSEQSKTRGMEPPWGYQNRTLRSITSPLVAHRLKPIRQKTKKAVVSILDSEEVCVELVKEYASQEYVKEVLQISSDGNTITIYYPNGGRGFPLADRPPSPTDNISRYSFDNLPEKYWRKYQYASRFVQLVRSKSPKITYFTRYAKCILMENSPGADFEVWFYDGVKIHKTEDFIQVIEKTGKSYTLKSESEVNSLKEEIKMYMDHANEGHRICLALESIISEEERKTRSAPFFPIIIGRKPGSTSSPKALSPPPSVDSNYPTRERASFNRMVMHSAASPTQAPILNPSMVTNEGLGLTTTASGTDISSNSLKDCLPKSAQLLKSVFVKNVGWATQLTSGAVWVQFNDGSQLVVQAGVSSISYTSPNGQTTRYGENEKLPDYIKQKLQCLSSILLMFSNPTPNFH
Sequence of AXL (human) (P30530 whole entry, looked up): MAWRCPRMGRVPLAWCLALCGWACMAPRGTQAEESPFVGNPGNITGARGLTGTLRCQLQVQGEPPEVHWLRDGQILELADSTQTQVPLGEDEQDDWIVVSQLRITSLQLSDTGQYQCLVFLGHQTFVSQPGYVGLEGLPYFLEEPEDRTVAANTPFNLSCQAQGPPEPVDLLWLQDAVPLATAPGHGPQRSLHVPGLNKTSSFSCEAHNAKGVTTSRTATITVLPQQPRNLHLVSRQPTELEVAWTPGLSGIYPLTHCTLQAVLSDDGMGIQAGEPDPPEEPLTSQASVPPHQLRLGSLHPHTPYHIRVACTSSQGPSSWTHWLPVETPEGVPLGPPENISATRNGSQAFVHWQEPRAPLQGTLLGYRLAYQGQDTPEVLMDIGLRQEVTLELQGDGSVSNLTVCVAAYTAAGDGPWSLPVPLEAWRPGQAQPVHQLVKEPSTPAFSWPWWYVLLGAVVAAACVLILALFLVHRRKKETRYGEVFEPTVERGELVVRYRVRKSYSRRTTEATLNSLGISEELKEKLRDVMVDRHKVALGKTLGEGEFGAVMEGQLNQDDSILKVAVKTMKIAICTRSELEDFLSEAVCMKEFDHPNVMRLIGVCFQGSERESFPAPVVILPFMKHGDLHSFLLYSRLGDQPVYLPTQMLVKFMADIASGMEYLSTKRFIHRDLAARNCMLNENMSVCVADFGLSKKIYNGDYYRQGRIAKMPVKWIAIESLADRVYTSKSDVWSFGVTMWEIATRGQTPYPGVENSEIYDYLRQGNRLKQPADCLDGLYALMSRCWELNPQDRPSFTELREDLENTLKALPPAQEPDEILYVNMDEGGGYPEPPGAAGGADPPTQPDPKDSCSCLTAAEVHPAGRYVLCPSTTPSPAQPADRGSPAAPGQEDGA

With `Oc1cccc(CSc2nc(-c3ccncc3)c(-c3ccc(F)cc3)[nH]2)c1`, the residual activity (usually the signal under treatment as a percentage of the control signal) stood at 144% at AKT1 (human); 52% on AURKA (human); 55% at AURKB (human); 76% at AXL (human); 126% on CDK2 CCNA2 (human); 121% at CDK4 CCND1 (human). Further, the residual activity was 95% on CSNK2A1 (human); 3% on EGFR (human); 35% at EPHB4 (human); 2% on ERBB2 (human); 79% at IGF1R (human); 7% at KDR (human). Besides, the residual activity on MAP3K8 (human) amounted to 91%; at MAPK10 (human), 17%; on MAPK14 (human), 2%; on MET (human), 58%; on NUAK1 (human) it was 121%; on PDGFRB (human), 35%. The residual activity was 103% at PLK1 (human); 42% on PLK4 (human); 88% on PTK2 (human); 12% on SRC (human); 18% at TEK (human).
Take `Fc1ccc(-c2[nH]c(SCCc3ccccc3)nc2-c2ccncc2)cc1`: the residual activity was 122% at AKT1 (human); 75% on AURKA (human); 78% at AURKB (human); 84% on AXL (human); 72% on CDK2 CCNA2 (human); 59% on CDK4 CCND1 (human). Besides, the residual activity on CSNK2A1 (human) is 96%; on EGFR (human) it was 24%; at EPHB4 (human) it was 48%; on ERBB2 (human), 41%; on IGF1R (human), 43%; at KDR (human) it was 45%. The residual activity on MAP3K8 (human) turned out to be 69%; on MAPK10 (human) it was 81%; at MAPK14 (human), 41%; on MET (human) it was 66%; at NUAK1 (human), 77%; at PDGFRB (human), 80%. Besides, the residual activity on PLK1 (human) was determined as 93%; on PLK4 (human) it was 56%; on PTK2 (human) it was 95%; on SRC (human), 43%; at TEK (human), 51%.
With `CSc1nc(-c2ccnc(NC(C)=O)c2)c(-c2ccc(F)cc2)n1C`, the residual activity on AKT1 (human) stood at 154%; at AURKA (human) it was 58%; at AURKB (human) it was 78%; at AXL (human), 52%; on CDK2 CCNA2 (human), 111%; at CDK4 CCND1 (human) it was 102%. For the same molecule, the residual activity is 88% at CSNK2A1 (human); 17% on EGFR (human); 32% at EPHB4 (human); 31% on ERBB2 (human); 78% on IGF1R (human); 13% on KDR (human). Moreover, the residual activity on MAP3K8 (human) turned out to be 74%; at MAPK10 (human) it was 11%; at MAPK14 (human) it was 1%; on MET (human), 79%; on NUAK1 (human), 104%; on PDGFRB (human), 26%. In addition, the residual activity at PLK1 (human) came to 109%; at PLK4 (human), 70%; at PTK2 (human), 71%; on SRC (human) it was 29%; at TEK (human), 24%.
As to `Fc1ccc(-c2[nH]c(SCc3ccccc3)nc2-c2ccnc(F)c2)cc1`, the residual activity at AKT1 (human) is 155%; at AURKA (human), 93%; at AURKB (human) it was 85%; at AXL (human) it was 75%; on CDK2 CCNA2 (human), 71%; at CDK4 CCND1 (human), 109%. The residual activity at CSNK2A1 (human) amounted to 86%; on EGFR (human), 17%; at EPHB4 (human), 77%; on ERBB2 (human), 9%; at IGF1R (human), 41%; at KDR (human) it was 32%. For the same molecule, the residual activity at MAP3K8 (human) was found to be 106%; at MAPK10 (human), 88%; on MAPK14 (human), 7%; at MET (human) it was 76%; on NUAK1 (human) it was 127%; at PDGFRB (human) it was 70%. Besides, the residual activity on PLK1 (human) was 131%; on PLK4 (human), 128%; at PTK2 (human), 90%; on SRC (human), 18%; at TEK (human), 34%.
In the case of `Fc1ccc(-c2[nH]c(CCc3ccccc3)nc2-c2ccncc2)cc1`, the residual activity on AKT1 (human) was found to be 76%; at AURKA (human), 44%; at AURKB (human), 50%; at AXL (human) it was 54%; on CDK2 CCNA2 (human), 45%; on CDK4 CCND1 (human), 99%. In addition, the residual activity at CSNK2A1 (human) was determined as 81%; at EGFR (human), 1%; at EPHB4 (human), 13%; at ERBB2 (human), 2%; on IGF1R (human) it was 18%; at KDR (human) it was 4%. Besides, the residual activity at MAP3K8 (human) worked out at 69%; at MAPK10 (human), 14%; on MAPK14 (human), 0%; on MET (human), 35%; on NUAK1 (human), 89%; on PDGFRB (human), 20%. The residual activity on PLK1 (human) worked out at 95%; at PLK4 (human) it was 26%; at PTK2 (human) it was 99%; at SRC (human) it was 1%; on TEK (human), 9%.
On to `Fc1ccc(-c2[nH]c(SCc3ccccc3)nc2-c2ccncc2)cc1`, for which the residual activity came to 110% at AKT1 (human); 79% on AURKA (human); 80% at AURKB (human); 82% on AXL (human); 77% on CDK2 CCNA2 (human); 101% on CDK4 CCND1 (human). Also, the residual activity was 94% at CSNK2A1 (human); 19% at EGFR (human); 49% at EPHB4 (human); 23% on ERBB2 (human); 72% on IGF1R (human); 58% on KDR (human). The residual activity at MAP3K8 (human) came out at 76%; at MAPK10 (human), 41%; on MAPK14 (human), 3%; at MET (human), 89%; on NUAK1 (human), 93%; on PDGFRB (human) it was 76%. Also, the residual activity came out at 94% at PLK1 (human); 71% at PLK4 (human); 86% at PTK2 (human); 42% on SRC (human); 50% on TEK (human).
For the molecule `On1c(CCc2ccccc2)nc(-c2ccncc2)c1-c1ccc(F)cc1`, the residual activity on AKT1 (human) was found to be 144%; at AURKA (human), 44%; on AURKB (human), 41%; on AXL (human), 79%; at CDK2 CCNA2 (human) it was 54%; on CDK4 CCND1 (human), 84%. The residual activity came out at 82% at CSNK2A1 (human); 1% at EGFR (human); 32% at EPHB4 (human); 2% at ERBB2 (human); 17% on IGF1R (human); 4% at KDR (human). Also, the residual activity at MAP3K8 (human) was determined as 78%; at MAPK10 (human), 14%; at MAPK14 (human) it was 0%; on MET (human), 44%; on NUAK1 (human), 100%; at PDGFRB (human), 37%. The residual activity at PLK1 (human) turned out to be 100%; on PLK4 (human) it was 16%; at PTK2 (human) it was 87%; at SRC (human), 4%; on TEK (human) it was 18%.

(Values after the kinase profiling compilation of Christmann-Franck et al. (2016).)
